Measured values published in ChEMBL document CHEMBL5321283, “Structure-Activity Relationships of the Antimicrobial Peptide Natural Product Apidaecin” (J Med Chem, 2023).
≈ marks a conversion by molar mass, not a printed value. *1 amine or outer side, *2 acyl side, *3 side chain or, on linkers, in order; H or OH if unused. Where a SMILES comes first, the peptide text is derived from it. [ ]: non-standard residue; d: D form. The star is where a group is joined. Orn(α-tetramethylguanidino) = CN(C)C(=N[C@@H](CCCN)C(=O)*)N(C)C; X1 = N=C(N)NCCC[C@H](NC(=S)[C@@H]1CCCN1[*:1])C(=O)[*:2]; X3 = O=C([C@@H]1CCCN1C(=S)[C@@H]1CCCN1[*:1])[*:2]; 2Nal = N[C@@H](Cc1ccc2ccccc2c1)C(=O)O; Hyp = O=C(O)[C@@H]1C[C@@H](O)CN1; hArg = N=C(N)NCCCC[C@H](N)C(=O)O; Cha = N[C@@H](CC1CCCCC1)C(=O)O; dLeu(ol) = CC(C)C[C@@H](N)CO; Leu(ol) = CC(C)C[C@H](N)CO

Tests used:
[1] = tested on: Escherichia coli; assay: Antibacterial activity against Escherichia coli BL21 assessed as bacterial growth inhibition by broth microdilution assay; type: functional
[2] = tested on: Escherichia coli; assay: Potency index, ratio of Api-137 MIC to test compound MIC for antibacterial activity against Escherichia coli BL21 assessed as bacterial growth inhibition by broth microdilution assay; type: functional

| Structure (SMILES) | MIC [1] [µM] | Ratio [2] |
| --- | --- | --- |
| CC[C@H](C)[C@H](NC(=O)[C@H](Cc1ccc(O)cc1)NC(=O)[C@@H](NC(=O)[C@@H]1CCCN1C(=O)[C@H](CCCNC(=N)N)NC(=O)[C@H](CC(N)=O)NC(=O)[C@H](CC(N)=O)NC(=O)[C@H](CCCN)N=C(N(C)C)N(C)C)C(C)C)C(=O)N1CCC[C@H]1C(=O)N[C@@H](CCCNC(=N)N)C(=O)N1CCC[C@H]1C(=O)N[C@@H](CCCNC(=N)N)C(=O)N1CCC[C@H]1C(=O)N1CCC[C@H]1C(=O)N[C@@H](Cc1c[nH]cn1)C(=O)N1C[C@H](O)C[C@H]1C(=O)N[C@@H](CCCNC(=N)N)C(=O)N[C@@H](CC(C)C)C(=O)O ({Orn(α-tetramethylguanidino)}-NNRPVYIPRPRPPH[Hyp]RL-OH) | 0.3 (≈ 0.692 µg/mL) | 2 |
| CC[C@H](C)[C@H](NC(=O)[C@H](Cc1ccc(O)cc1)NC(=O)[C@@H](NC(=O)[C@@H]1CCCN1C(=O)[C@H](CCCNC(=N)N)NC(=O)[C@H](CC(N)=O)NC(=O)[C@H](CC(N)=O)NC(=O)[C@H](CCCN)N=C(N(C)C)N(C)C)C(C)C)C(=O)N1CCC[C@H]1C(=O)N[C@@H](CCCNC(=N)N)C(=O)N1CCC[C@H]1C(=O)N[C@@H](CCCNC(=N)N)C(=O)N1CCC[C@H]1C(=O)N1CCC[C@H]1C(=O)N[C@@H](Cc1c[nH]cn1)C(=O)N1CCC[C@H]1C(=S)N[C@@H](CCCNC(=N)N)C(=O)N[C@@H](CC(C)C)C(=O)O ({Orn(α-tetramethylguanidino)}-NNRPVYIPRPRPPH[X1]L-OH) | 0.62 (≈ 1.43 µg/mL) | 4 |
| CC[C@H](C)[C@H](NC(=O)[C@H](Cc1ccc(O)cc1)NC(=O)[C@@H](NC(=O)[C@@H]1CCCN1C(=O)[C@H](CCCNC(=N)N)NC(=O)[C@H](CC(N)=O)NC(=O)[C@H](CC(N)=O)NC(=O)[C@H](CCCN)N=C(N(C)C)N(C)C)C(C)C)C(=O)N1CCC[C@H]1C(=O)N[C@@H](CCCNC(=N)N)C(=O)N1CCC[C@H]1C(=O)N[C@@H](CCCNC(=N)N)C(=O)N1CCC[C@H]1C(=O)N1CCC[C@H]1C(=O)N[C@@H](Cc1ccc2ccccc2c1)C(=O)N1CCC[C@H]1C(=O)N[C@@H](CCCNC(=N)N)C(=O)N[C@@H](CC(C)C)C(=O)O ({Orn(α-tetramethylguanidino)}-NNRPVYIPRPRPP[2Nal]PRL-OH) | 10 (≈ 23.5 µg/mL) | 63 |
| CC[C@H](C)[C@H](NC(=O)[C@H](Cc1ccc(O)cc1)NC(=O)[C@@H](NC(=O)[C@@H]1CCCN1C(=O)[C@H](CCCNC(=N)N)NC(=O)[C@H](CC(N)=O)NC(=O)[C@H](CC(N)=O)NC(=O)[C@H](CCCN)N=C(N(C)C)N(C)C)C(C)C)C(=O)N1CCC[C@H]1C(=O)N[C@@H](CCCNC(=N)N)C(=O)N1CCC[C@H]1C(=O)N[C@@H](CCCNC(=N)N)C(=O)N1CCC[C@H]1C(=O)N1C[C@H](O)C[C@H]1C(=O)N[C@@H](Cc1c[nH]cn1)C(=O)N1CCC[C@H]1C(=O)N[C@@H](CCCNC(=N)N)C(=O)N[C@@H](CC(C)C)C(=O)O ({Orn(α-tetramethylguanidino)}-NNRPVYIPRPRP[Hyp]HPRL-OH) | 0.6 (≈ 1.38 µg/mL) | 2 |
| CC[C@H](C)[C@H](NC(=O)[C@H](Cc1ccc(O)cc1)NC(=O)[C@@H](NC(=O)[C@@H]1CCCN1C(=O)[C@H](CCCNC(=N)N)NC(=O)[C@H](CC(N)=O)NC(=O)[C@H](CC(N)=O)NC(=O)[C@H](CCCN)N=C(N(C)C)N(C)C)C(C)C)C(=O)N1CCC[C@H]1C(=O)N[C@@H](CCCNC(=N)N)C(=O)N1CCC[C@H]1C(=O)N[C@@H](CCCNC(=N)N)C(=O)N1CCC[C@H]1C(=O)N1CCC[C@H]1C(=O)N[C@@H](Cc1c[nH]c2ccccc12)C(=O)N1CCC[C@H]1C(=O)N[C@@H](CCCNC(=N)N)C(=O)N[C@@H](CC(C)C)C(=O)O ({Orn(α-tetramethylguanidino)}-NNRPVYIPRPRPPWPRL-OH) | 1.2 (≈ 2.81 µg/mL) | 8 |
| CC[C@H](C)[C@H](NC(=O)[C@H](Cc1ccc(OC)cc1)NC(=O)[C@@H](NC(=O)[C@@H]1CCCN1C(=O)[C@H](CCCNC(=N)N)NC(=O)[C@H](CC(N)=O)NC(=O)[C@H](CC(N)=O)NC(=O)[C@H](CCCN)N=C(N(C)C)N(C)C)C(C)C)C(=O)N1CCC[C@H]1C(=O)N[C@@H](CCCNC(=N)N)C(=O)N1CCC[C@H]1C(=O)N[C@@H](CCCNC(=N)N)C(=O)N1CCC[C@H]1C(=O)N1CCC[C@H]1C(=O)N[C@@H](Cc1c[nH]cn1)C(=O)N1CCC[C@H]1C(=O)N[C@@H](CCCNC(=N)N)C(=O)N[C@@H](CC(C)C)C(=O)O ({Orn(α-tetramethylguanidino)}-NNRPVY(Me)IPRPRPPHPRL-OH) | 1.5 (≈ 3.46 µg/mL) | 4 |
| CC[C@H](C)[C@H](NC(=O)[C@H](Cc1ccc(O)cc1)NC(=O)[C@@H](NC(=O)[C@@H]1CCCN1C(=O)[C@H](CCCNC(=N)N)NC(=O)[C@H](CC(N)=O)NC(=O)[C@H](CC(N)=O)NC(=O)[C@H](CCCN)N=C(N(C)C)N(C)C)C(C)C)C(=O)N1CCC[C@H]1C(=O)N[C@@H](CCCNC(=N)N)C(=O)N1CCC[C@H]1C(=O)N[C@@H](CCCNC(=N)N)C(=O)N1CCC[C@H]1C(=O)N1CCC[C@H]1C(=O)N[C@@H](Cc1c[nH]cn1)C(=O)N1CCC[C@H]1C(=O)N[C@@H](CCCNC(=N)N)C(=O)N[C@H](CO)CC(C)C ({Orn(α-tetramethylguanidino)}-NNRPVYIPRPRPPHPR[Leu(ol)]) | 5 (≈ 11.4 µg/mL) | 32 |
| CC[C@H](C)[C@H](NC(=O)[C@H](Cc1ccc(O)cc1)NC(=O)[C@@H](NC(=O)[C@@H]1C[C@@H](O)CN1C(=O)[C@H](CCCNC(=N)N)NC(=O)[C@H](CC(N)=O)NC(=O)[C@H](CC(N)=O)NC(=O)[C@H](CCCN)N=C(N(C)C)N(C)C)C(C)C)C(=O)N1CCC[C@H]1C(=O)N[C@@H](CCCNC(=N)N)C(=O)N1CCC[C@H]1C(=O)N[C@@H](CCCNC(=N)N)C(=O)N1CCC[C@H]1C(=O)N1CCC[C@H]1C(=O)N[C@@H](Cc1c[nH]cn1)C(=O)N1CCC[C@H]1C(=O)N[C@@H](CCCNC(=N)N)C(=O)N[C@@H](CC(C)C)C(=O)O ({Orn(α-tetramethylguanidino)}-NNR[Hyp]VYIPRPRPPHPRL-OH) | 0.08 (≈ 0.185 µg/mL) | 1 |
| CC[C@H](C)[C@H](NC(=O)[C@H](Cc1ccc(O)cc1)NC(=O)[C@@H](NC(=O)[C@@H]1CCCN1C(=O)[C@H](CCCNC(=N)N)NC(=O)[C@H](CC(N)=O)NC(=O)[C@H](CC(N)=O)NC(=O)[C@H](CCCN)N=C(N(C)C)N(C)C)C(C)C)C(=O)N1CCC[C@H]1C(=O)N[C@@H](CCCNC(=N)N)C(=O)N1CCC[C@H]1C(=O)N[C@@H](CCCNC(=N)N)C(=O)N1CCC[C@H]1C(=O)N1CCC[C@H]1C(=O)N[C@@H](Cc1c[nH]cn1)C(=O)N1CCC[C@H]1C(=O)N[C@@H](CCCCNC(=N)N)C(=O)N[C@@H](CC(C)C)C(=O)O ({Orn(α-tetramethylguanidino)}-NNRPVYIPRPRPPHP[hArg]L-OH) | 2.5 (≈ 5.76 µg/mL) | 16 |
| CC[C@H](C)[C@H](NC(=O)[C@H](Cc1ccc(O)cc1)NC(=O)[C@@H](NC(=O)[C@@H]1CCCN1C(=O)[C@H](CCCNC(=N)N)NC(=O)[C@H](CC(N)=O)NC(=O)[C@H](CC(N)=O)NC(=O)[C@H](CCCN)N=C(N(C)C)N(C)C)C(C)C)C(=O)N1CCC[C@H]1C(=O)N[C@@H](CCCNC(=N)N)C(=O)N1CCC[C@H]1C(=O)N[C@@H](CCCNC(=N)N)C(=O)N1CCC[C@H]1C(=O)N1CCC[C@H]1C(=O)N[C@@H](Cc1c[nH]cn1)C(=O)N1CCC[C@H]1C(=O)N[C@@H](CCCNC(=N)N)C(=O)N[C@@H](CO)Cc1ccccc1 | 40 (≈ 92.5 µg/mL) | 800 |
| CC[C@H](C)[C@H](NC(=O)[C@H](Cc1ccc(O)cc1)NC(=O)[C@@H](NC(=O)[C@@H]1CCCN1C(=O)[C@H](CCCNC(=N)N)NC(=O)[C@H](CC(N)=O)NC(=O)[C@H](CC(N)=O)NC(=O)[C@H](CCCN)N=C(N(C)C)N(C)C)C(C)C)C(=O)N1CCC[C@H]1C(=O)N[C@@H](CCCNC(=N)N)C(=O)N1CCC[C@H]1C(=O)N[C@@H](CCCNC(=N)N)C(=O)N1CCC[C@H]1C(=O)N1CCC[C@H]1C(=O)N[C@@H](CC1CCCCC1)C(=O)N1CCC[C@H]1C(=O)N[C@@H](CCCNC(=N)N)C(=O)N[C@@H](CC(C)C)C(=O)O ({Orn(α-tetramethylguanidino)}-NNRPVYIPRPRPP[Cha]PRL-OH) | 5 (≈ 11.5 µg/mL) | 32 |
| CC[C@H](C)[C@H](NC(=O)[C@H](Cc1ccc(O)cc1)NC(=O)[C@@H](NC(=O)[C@@H]1CCCN1C(=O)[C@H](CCCNC(=N)N)NC(=O)[C@H](CC(N)=O)NC(=O)[C@H](CC(N)=O)NC(=O)[C@H](CCCN)N=C(N(C)C)N(C)C)C(C)C)C(=O)N1C[C@H](O)C[C@H]1C(=O)N[C@@H](CCCNC(=N)N)C(=O)N1CCC[C@H]1C(=O)N[C@@H](CCCNC(=N)N)C(=O)N1CCC[C@H]1C(=O)N1CCC[C@H]1C(=O)N[C@@H](Cc1c[nH]cn1)C(=O)N1CCC[C@H]1C(=O)N[C@@H](CCCNC(=N)N)C(=O)N[C@@H](CC(C)C)C(=O)O ({Orn(α-tetramethylguanidino)}-NNRPVYI[Hyp]RPRPPHPRL-OH) | 0.08 (≈ 0.185 µg/mL) | 1 |
| CC[C@H](C)[C@H](NC(=O)[C@H](Cc1ccc(O)cc1)NC(=O)[C@@H](NC(=O)[C@@H]1CCCN1C(=O)[C@H](CCCNC(=N)N)NC(=O)[C@H](CC(N)=O)NC(=O)[C@H](CC(N)=O)NC(=O)[C@H](CCCN)N=C(N(C)C)N(C)C)C(C)C)C(=O)N1CCC[C@H]1C(=O)N[C@@H](CCCNC(=N)N)C(=O)N1CCC[C@H]1C(=O)N[C@@H](CCCNC(=N)N)C(=O)N1CCC[C@H]1C(=O)N1CCC[C@H]1C(=O)N[C@@H](Cc1c[nH]cn1)C(=O)N1CCC[C@H]1C(=O)N[C@@H](CCCNC(=N)N)C(=O)N[C@@H](CO)CC(C)C ({Orn(α-tetramethylguanidino)}-NNRPVYIPRPRPPHPR[dLeu(ol)]) | 10 (≈ 22.8 µg/mL) | 62 |
| CC[C@H](C)[C@H](NC(=O)[C@H](Cc1ccc(O)cc1)NC(=O)[C@@H](NC(=O)[C@@H]1CCCN1C(=O)[C@H](CCCNC(=N)N)NC(=O)[C@H](CC(N)=O)NC(=O)[C@H](CC(N)=O)NC(=O)[C@H](CCCN)N=C(N(C)C)N(C)C)C(C)C)C(=O)N1CCC[C@H]1C(=O)N[C@@H](CCCNC(=N)N)C(=O)N1CCC[C@H]1C(=O)N[C@@H](CCCNC(=N)N)C(=O)N1CCC[C@H]1C(=S)N1CCC[C@H]1C(=O)N[C@@H](Cc1c[nH]cn1)C(=O)N1CCC[C@H]1C(=O)N[C@@H](CCCNC(=N)N)C(=O)N[C@@H](CC(C)C)C(=O)O ({Orn(α-tetramethylguanidino)}-NNRPVYIPRPR[X3]HPRL-OH) | 0.62 (≈ 1.43 µg/mL) | 4 |
